Assay results from the supplement of paper PMC10307832.

Columns and labels:
Assay in all cases: relative viability (nuclei count vs DMSO), 5 days (fraction); higher = more cells survive
Bosutinib + Palbociclib = compound: COc1cc(Nc2c(C#N)cnc3cc(OCCCN4CCN(C)CC4)c(OC)cc23)c(Cl)cc1Cl [Bosutinib] + CC(=O)c1c(C)c2cnc(Nc3ccc(N4CCNCC4)cn3)nc2n(C2CCCC2)c1=O [Palbociclib] (partner 0.5 µM)
In short: (§1)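 Lung cancer cell lines in 1536-well plates were dosed by pin tool the day after seeding, either with one drug alone or with a fixed anchor-drug dose plus five library-drug doses (not always all listed) in √10 steps. After 5 days, cells were fixed and their nuclei stained in one step (final 0.05% Triton X-100, 1% formaldehyde, 1 ug/ml Hoechst), then counted on 4× images. Relative viability is the nuclei count in treated wells divided by that in vehicle wells. Values are medians of duplicate plates.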

Bosutinib + Bortezomib = compound: COc1cc(Nc2c(C#N)cnc3cc(OCCCN4CCN(C)CC4)c(OC)cc23)c(Cl)cc1Cl [Bosutinib] + CC(C)C[C@H](NC(=O)[C@H](Cc1ccccc1)NC(=O)c1cnccn1)B(O)O [Bortezomib] (partner 0.002 µM)
In short: as §1

Bosutinib + Foretinib = compound: COc1cc(Nc2c(C#N)cnc3cc(OCCCN4CCN(C)CC4)c(OC)cc23)c(Cl)cc1Cl [Bosutinib] + COc1cc2c(Oc3ccc(NC(=O)C4(C(=O)Nc5ccc(F)cc5)CC4)cc3F)ccnc2cc1OCCCN1CCOCC1 [Foretinib] (partner 0.25 µM)
In short: as §1

Bosutinib + Pemetrexed = compound: COc1cc(Nc2c(C#N)cnc3cc(OCCCN4CCN(C)CC4)c(OC)cc23)c(Cl)cc1Cl [Bosutinib] + Nc1nc2[nH]cc(CCc3ccc(C(=O)N[C@@H](CCC(=O)O)C(=O)O)cc3)c2c(=O)[nH]1 [Pemetrexed] (partner 0.2 µM)
In short: as §1

Bosutinib + Decitabine = compound: COc1cc(Nc2c(C#N)cnc3cc(OCCCN4CCN(C)CC4)c(OC)cc23)c(Cl)cc1Cl [Bosutinib] + Nc1ncn([C@H]2C[C@H](O)[C@@H](CO)O2)c(=O)n1 [Decitabine] (partner 2 µM)
In short: as §1

Cell Line	relative viability (Bosutinib + Palbociclib; first compound 0.01 µM)	relative viability (Bosutinib + Palbociclib; first compound 0.03162 µM)	relative viability (Bosutinib + Palbociclib; first compound 0.1 µM)	relative viability (Bosutinib + Palbociclib; first compound 1 µM)	relative viability (Bosutinib + Bortezomib; first compound 0.01 µM)	relative viability (Bosutinib + Bortezomib; first compound 0.03162 µM)	relative viability (Bosutinib + Bortezomib; first compound 0.1 µM)	relative viability (Bosutinib + Bortezomib; first compound 1 µM)	relative viability (Bosutinib + Foretinib; first compound 0.01 µM)	relative viability (Bosutinib + Foretinib; first compound 0.03162 µM)	relative viability (Bosutinib + Foretinib; first compound 0.1 µM)	relative viability (Bosutinib + Foretinib; first compound 1 µM)	relative viability (Bosutinib + Pemetrexed; first compound 0.01 µM)	relative viability (Bosutinib + Pemetrexed; first compound 0.03162 µM)	relative viability (Bosutinib + Pemetrexed; first compound 0.1 µM)	relative viability (Bosutinib + Pemetrexed; first compound 1 µM)	relative viability (Bosutinib + Decitabine; first compound 0.01 µM)	relative viability (Bosutinib + Decitabine; first compound 0.03162 µM)	relative viability (Bosutinib + Decitabine; first compound 0.1 µM)	relative viability (Bosutinib + Decitabine; first compound 1 µM)
EKVX	0.39	0.367	0.373	0.314	1.18	1.05	0.982	0.713	0.723	0.82	0.693	0.469	0.403	0.406	0.381	0.361	0.382	0.38	0.311	0.336
EMC-BAC-2	0.519	0.5	0.508	0.533	1.03	0.943	1.07	1.06	1.02	0.981	1.06	0.768	0.426	0.444	0.446	0.448	0.963	0.967	0.992	0.988
EPLC-272H	0.282	0.305	0.313	0.317	0.76	0.817	0.911	0.9	0.657	0.677	0.704	0.58	0.324	0.382	0.323	0.319	0.358	0.383	0.418	0.321
H3255	0.322	0.306	0.323	0.319	0.659	0.774	0.85	0.493	0.835	0.885	0.969	0.79	0.555	0.596	0.621	0.446	–	0.725	0.804	0.354
HARA	0.339	0.293	0.243	0.171	1.15	1.13	1.1	1.18	0.869	0.872	0.878	0.646	0.237	0.27	0.244	0.264	0.581	0.547	0.618	0.489
HCC-15	0.763	0.71	0.699	0.63	1.05	1.06	1.08	0.915	1.07	1.05	1.04	0.874	0.227	0.244	0.226	0.221	0.653	0.659	0.659	0.609
HCC-44	0.985	0.967	0.964	0.865	0.873	0.891	0.867	0.567	–	–	–	–	0.661	0.642	0.683	0.603	0.97	0.995	0.971	0.987
HCC-78	0.457	0.425	0.506	0.435	0.551	0.486	0.428	0.429	0.553	0.506	0.571	0.52	0.893	0.916	0.936	0.859	0.768	0.698	0.761	0.676
